Measured values taken from patent US20240110185A1, “INDUCIBLE ANTI-SENSE REPRESSOR SWITCHES AND USES THEREOF” (Trustees of Boston University, priority 2022, published 2024).

Legend:
mCherry [1] = experiment: Downstream inducible repression with synTF-RD (zinc finger, KRAB, ERT2) and its repressor construct, % mCherry (FIG. 6B); assay type: cell-based; conditions: 4-OHT at 0.1, 0.2, 0.5 and 1 μM for d0-d3, 8 days after removal
Description: FIG. 6A-6B show an alternative embodiment of a synTF and construct system for downstream inducible-repression.

[2] = test system: mCherry fluorescent reporter; experiment: Inducible anti-sense repressor switch: mCherry reporter repression and recovery in 293T cells stably expressing ZF-VP64-ERT2 synTF and the reporter construct; assay type: cell-based, human
Experimental: (§1) To evaluate the kinetics of this repressor switch, 293T cells where generated to stably express both the inducible anti-sense repressor and fluorescent reporter. In order to determine whether the repressor switch is able to transiently silence GOIs, the inventors treated reporter cells with. 1 uM 4-OHT and measured mCherry reporter fluorescence at 1 day, 2 days, and 3 days. In order to determine whether the repressor switch transiently represses GOIs, the inventors removed 4-OHT and measured fluorescence expression after 2 days, 4 days, 6 days, and 8 days (FIG. 5A-5B).
The expression of mCherry was measured at days 0, d1, d2, d3, d4, d6, d7, d9 and d11.
as §1, with “To assess transcriptional repression of the GOI, inducible antisense repressor construct comprising (i) a first transcriptional unit comprising a constitutively active promoter operatively linked to a mCherry fluorescent reporter GOI was used, and a (ii) a second transcriptional unit comprising an inverted DNA binding motif (DBM) comprising a zinc finger binding array operatively linked to a minimal promoter (FIG. 4A). To” for “To”, “with 0.1” for “with. 1”
To assess the inducible transcriptional repressor system, the inventors initially used two vectors. One vector comprises a synthetic inducible repressor construct as defined herein, which compromises a gene of interest (GOI) operatively linked to a constitutive promoter, and downstream, a second transcription unit comprising, in brief, a second promoter, and a binding site for the synTF (e.g., DBM or the DNA binding domain). The second vector encoding the inducible synTF (e.g., small molecule induced synTF) comprising a transcriptional activation domain, DNA-binding domain (DBD) and a nuclear localization domain (or cytosolic domain). First, to construct the nucleic acid encoding the small-molecule inducer synTF, one of our artificial zinc finger proteins was attached (see U.S. Pat. No. 10,138,493 B2 and Patent Application No. US 2020/0377564 A1, incorporated herein by reference) to both a VP64 transcriptional domain and ERT2 domain (FIG. 2A). To assess the inducer-dependent, synTF mediated transcriptional repression of the GOI, an engineered construct comprising a constitutively expressed mCherry fluorescent reporter, operatively connected to a constitutive promoter was created, which had, downstream a minimal promoter and an inverted zinc finger binding array (ZF-BD) (also referred to as a DNA binding motif (DBM) (FIG. 4A).
To evaluate the kinetics of this inducible antisense repressor switch, 293T cells were transduced with the vector encoding the synTF and the inducible transcriptional repressor construct to generate a reporter cell line that stably expresses both the inducible synTF and fluorescent reporter. To determine whether the repressor switch was able to transiently silence the GOI mRNA, the cells were treated with three concentrations of 4-OHT and mCherry reporter was measured fluorescence at 1 day, 2 days, and 3 days (FIG. 5A-5B). Next, to determine whether the inducible synTF repressor switch could transiently represses the expression of the GOI, 4-OHT was removed and measured fluorescence expression after 2 days, 4 days, 6 days, and 8 days (FIG. 5B).

mCherry GOI = experiment: Inducible-repressor circuit with spacer and second promoter, % mCherry and FACS (FIG. 8, FIG. 9); assay type: cell-based
Description: FIG. 7 is a schematic of an exemplary inducible-repressor circuit (top panel), and a second exemplary inducible-repressor circuit (bottom panel), where the second inducible-repressor circuit is modified to comprise, in the second transcription unit, a spacer and a second promoter, and the DBD, each if which are in the antisense direction to the first transcription unit comprising the first promoter and GOI.

mCherry [3] = experiment: Inducible-repressor circuit with RZ and synTF-MNAS, % mCherry (FIG. 11); assay type: cell-based; conditions: 4-OHT d0-d3 at 0.1, 0.2, 0.5 and 1 μM, duplicates
Description: FIG. 10 is a schematic of an exemplary synTF comprising VP64, and an exemplary inducible anti-sense repressor construct comprising, in the second transcription unit, a ribosome entry site (RZ), and a nucleic acid sequence that is the antisense to a portion of the nucleic acid encoding the GOI, which are both 5′ to the second promoter and the DBD. In some embodiments, the antisense to the portion of the GOI, herein referred to as “synTF-mediated nucleic acid sequence” or “synTF-MNAS” can be replaced by any RNAi molecule known to persons of ordinary skill in the art.

**Q.** For `CC/C(=C(\c1ccc(O)cc1)c1ccc(OCCN(C)C)cc1)c1ccccc1` [4-OHT, 4-hydroxytamoxifen], which “repression of mCherry compared with the synTF and construct of FIG. 5B” value (mCherry [1]) is on record?
**A.** milder repression

**Q.** What about the “reporter fluorescence expression after 3 days of 4-OHT” value ([2]; 0.1 uM 4-OHT, 293T reporter cells, after 3 days) of the same molecule?
**A.** strongly repressed

**Q.** And the “mCherry expression in the presence of 4-OHT, of normal levels” value ([2]; 4-OHT at 0.1 μM, 0.2 μM and 0.5 μM for d0-d3, 293 cells with synTF and construct of FIG. 2A-2B)?
**A.** about 20%

**Q.** What about the “mCherry levels 8 days after the removal of 4-OHT” value ([2]; 4-OHT at 0.1 μM, 8 days after removal) of the same molecule?
**A.** back to normal levels

**Q.** And the “reporter fluorescence expression after 4-OHT removal” value ([2]; 8 days post 4-OHT removal)?
**A.** restored

**Q.** What about the “mCherry expression restored, of baseline levels” value ([2]; 8 days post 4-OHT removal, 0.1 M 4-OHT treatment (so in the source)) of the same molecule?
**A.** 100%

**Q.** And the “repression of mCherry expression” value ([2]; all three 4-OHT concentrations, after 3 days, 293T reporter cells)?
**A.** approx. 80%

**Q.** And the “mCherry expression after the removal of 4-OHT” value ([2]; d4-d11, after 3 days of 4-OHT)?
**A.** significantly increased

**Q.** And the “repression of mCherry compared with the construct in the top panel of FIG. 7” value (mCherry GOI; 4-OHT d0-d3 at 0.1 μM, 0.2 M (so in the source), 0.5 μM and 1 μM, duplicates, spacer and second promoter circuit)?
**A.** greater repression

**Q.** And the “mCherry expression, FACS flow plot” value (mCherry GOI; 2 days after addition of 1 uM 4-OHT, decreased from 87.9% before)?
**A.** 69.8%

**Q.** And the “repression of mCherry compared with the construct in the top panel of FIG. 7” value (mCherry [3])?
**A.** greater repression
